In article PMC5762315, “Inhibition of polo-like kinase 4 (PLK4): a new therapeutic option for rhabdoid tumors and pediatric medulloblastoma” (Oncotarget, 2017):
Several values for one entry are separate records, joined by “and”; a condition that tells them apart may be missing. Equal values may be shown once.

Assays:
Assay in all cases: LanthaScreen Eu Kinase Binding Assay, panel of 486 biochemical kinase assays
various kinases [1] = molecular target: T1, various kinases (Homo sapiens, UniProt Q9UKI8); details: kinase TLK1; LanthaScreen Binding
T1 sequence (Q9UKI8 1-766): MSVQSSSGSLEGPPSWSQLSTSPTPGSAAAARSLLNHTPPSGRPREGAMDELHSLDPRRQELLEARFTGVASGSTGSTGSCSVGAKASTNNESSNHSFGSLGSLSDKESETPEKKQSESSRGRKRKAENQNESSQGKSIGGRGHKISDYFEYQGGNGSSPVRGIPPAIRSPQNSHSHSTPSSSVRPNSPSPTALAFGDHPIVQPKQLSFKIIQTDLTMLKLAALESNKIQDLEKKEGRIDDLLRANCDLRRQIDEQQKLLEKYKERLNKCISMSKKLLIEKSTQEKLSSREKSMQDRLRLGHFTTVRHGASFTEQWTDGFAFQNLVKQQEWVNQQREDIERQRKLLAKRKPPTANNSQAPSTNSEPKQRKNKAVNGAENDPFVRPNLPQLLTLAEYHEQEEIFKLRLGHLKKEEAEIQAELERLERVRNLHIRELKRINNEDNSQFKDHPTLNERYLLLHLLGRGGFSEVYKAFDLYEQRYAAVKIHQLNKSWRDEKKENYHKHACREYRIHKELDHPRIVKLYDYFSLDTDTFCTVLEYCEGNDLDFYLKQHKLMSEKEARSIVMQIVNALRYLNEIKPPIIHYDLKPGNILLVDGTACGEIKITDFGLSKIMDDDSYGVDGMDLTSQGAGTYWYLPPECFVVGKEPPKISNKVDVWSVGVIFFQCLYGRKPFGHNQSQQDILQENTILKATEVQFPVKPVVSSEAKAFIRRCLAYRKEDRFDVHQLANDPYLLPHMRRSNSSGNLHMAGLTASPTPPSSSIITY

various kinases [2] = molecular target: various kinases (Homo sapiens, UniProt Q9UM73, L1196M); details: ALK L1196M
various kinases [3] = molecular target: various kinases (Homo sapiens, UniProt P07949, V804M); details: kinase RET V804M; LanthaScreen Binding
Sequence of various kinases (Homo sapiens, UniProt P07949, V804M) (P07949 29-1114 V804M): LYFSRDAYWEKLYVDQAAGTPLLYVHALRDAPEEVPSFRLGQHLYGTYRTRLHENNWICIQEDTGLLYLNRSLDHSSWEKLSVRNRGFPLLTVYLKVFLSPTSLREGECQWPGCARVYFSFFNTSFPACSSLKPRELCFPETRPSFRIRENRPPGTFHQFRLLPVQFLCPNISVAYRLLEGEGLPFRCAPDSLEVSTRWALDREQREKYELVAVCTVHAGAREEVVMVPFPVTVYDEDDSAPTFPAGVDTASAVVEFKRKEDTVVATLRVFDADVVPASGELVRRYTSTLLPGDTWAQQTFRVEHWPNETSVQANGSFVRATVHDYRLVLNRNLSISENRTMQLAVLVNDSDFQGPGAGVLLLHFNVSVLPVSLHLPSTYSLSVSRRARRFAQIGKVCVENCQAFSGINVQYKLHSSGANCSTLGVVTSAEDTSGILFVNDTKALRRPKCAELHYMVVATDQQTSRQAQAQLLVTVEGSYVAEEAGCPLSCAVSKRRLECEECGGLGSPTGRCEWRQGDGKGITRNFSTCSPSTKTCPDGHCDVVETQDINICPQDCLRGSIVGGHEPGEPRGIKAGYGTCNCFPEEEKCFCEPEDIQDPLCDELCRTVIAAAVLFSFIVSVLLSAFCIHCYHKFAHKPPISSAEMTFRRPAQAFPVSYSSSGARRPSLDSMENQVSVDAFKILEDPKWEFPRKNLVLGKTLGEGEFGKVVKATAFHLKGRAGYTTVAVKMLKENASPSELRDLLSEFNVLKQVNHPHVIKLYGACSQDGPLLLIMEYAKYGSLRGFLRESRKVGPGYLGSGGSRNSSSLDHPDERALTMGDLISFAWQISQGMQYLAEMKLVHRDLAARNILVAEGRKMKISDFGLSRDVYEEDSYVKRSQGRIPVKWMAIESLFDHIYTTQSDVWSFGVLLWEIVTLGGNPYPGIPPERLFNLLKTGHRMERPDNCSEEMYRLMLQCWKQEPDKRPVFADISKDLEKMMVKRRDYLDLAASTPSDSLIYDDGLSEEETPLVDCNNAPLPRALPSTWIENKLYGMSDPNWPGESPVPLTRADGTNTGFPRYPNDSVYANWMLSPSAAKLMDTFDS

various kinases [4] = molecular target: various kinases (Homo sapiens, UniProt Q13873); details: BMPR2
various kinases [5] = molecular target: various kinases (Homo sapiens, UniProt P45984); details: MAPK9 (JNK2)
various kinases [6] = molecular target: various kinases (Homo sapiens, UniProt P10721, T670E); details: KIT T670E
various kinases [7] = molecular target: various kinases (Homo sapiens, UniProt Q86Y07); details: kinase VRK2; LanthaScreen Binding
Sequence of various kinases (Homo sapiens, UniProt Q86Y07) (Q86Y07 whole entry): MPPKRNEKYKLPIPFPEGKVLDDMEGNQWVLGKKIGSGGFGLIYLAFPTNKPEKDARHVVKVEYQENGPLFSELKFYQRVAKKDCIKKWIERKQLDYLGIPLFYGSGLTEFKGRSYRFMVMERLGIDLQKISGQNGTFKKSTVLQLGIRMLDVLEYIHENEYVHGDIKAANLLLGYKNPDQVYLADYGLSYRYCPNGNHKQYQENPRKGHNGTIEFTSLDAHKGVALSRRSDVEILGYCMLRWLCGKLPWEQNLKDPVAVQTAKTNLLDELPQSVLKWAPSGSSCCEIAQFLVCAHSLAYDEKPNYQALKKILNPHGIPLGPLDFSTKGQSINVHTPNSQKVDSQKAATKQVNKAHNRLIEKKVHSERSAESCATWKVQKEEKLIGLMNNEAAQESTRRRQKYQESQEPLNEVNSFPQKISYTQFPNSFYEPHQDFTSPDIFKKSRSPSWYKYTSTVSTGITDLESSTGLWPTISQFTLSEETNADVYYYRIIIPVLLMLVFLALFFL

various kinases [8] = molecular target: various kinases (Homo sapiens, UniProt O75460); details: ERN1
various kinases [9] = molecular target: various kinases (Homo sapiens, UniProt Q15746); details: MYLK (MLCK)
various kinases [10] = molecular target: various kinases (Homo sapiens, UniProt Q32MK0); details: MLCK (MLCK2)
various kinases [11] = molecular target: various kinases (Homo sapiens, UniProt Q9H4A3); details: kinase WNK1; LanthaScreen Binding
Sequence of various kinases (Homo sapiens, UniProt Q9H4A3) (Q9H4A3 whole entry): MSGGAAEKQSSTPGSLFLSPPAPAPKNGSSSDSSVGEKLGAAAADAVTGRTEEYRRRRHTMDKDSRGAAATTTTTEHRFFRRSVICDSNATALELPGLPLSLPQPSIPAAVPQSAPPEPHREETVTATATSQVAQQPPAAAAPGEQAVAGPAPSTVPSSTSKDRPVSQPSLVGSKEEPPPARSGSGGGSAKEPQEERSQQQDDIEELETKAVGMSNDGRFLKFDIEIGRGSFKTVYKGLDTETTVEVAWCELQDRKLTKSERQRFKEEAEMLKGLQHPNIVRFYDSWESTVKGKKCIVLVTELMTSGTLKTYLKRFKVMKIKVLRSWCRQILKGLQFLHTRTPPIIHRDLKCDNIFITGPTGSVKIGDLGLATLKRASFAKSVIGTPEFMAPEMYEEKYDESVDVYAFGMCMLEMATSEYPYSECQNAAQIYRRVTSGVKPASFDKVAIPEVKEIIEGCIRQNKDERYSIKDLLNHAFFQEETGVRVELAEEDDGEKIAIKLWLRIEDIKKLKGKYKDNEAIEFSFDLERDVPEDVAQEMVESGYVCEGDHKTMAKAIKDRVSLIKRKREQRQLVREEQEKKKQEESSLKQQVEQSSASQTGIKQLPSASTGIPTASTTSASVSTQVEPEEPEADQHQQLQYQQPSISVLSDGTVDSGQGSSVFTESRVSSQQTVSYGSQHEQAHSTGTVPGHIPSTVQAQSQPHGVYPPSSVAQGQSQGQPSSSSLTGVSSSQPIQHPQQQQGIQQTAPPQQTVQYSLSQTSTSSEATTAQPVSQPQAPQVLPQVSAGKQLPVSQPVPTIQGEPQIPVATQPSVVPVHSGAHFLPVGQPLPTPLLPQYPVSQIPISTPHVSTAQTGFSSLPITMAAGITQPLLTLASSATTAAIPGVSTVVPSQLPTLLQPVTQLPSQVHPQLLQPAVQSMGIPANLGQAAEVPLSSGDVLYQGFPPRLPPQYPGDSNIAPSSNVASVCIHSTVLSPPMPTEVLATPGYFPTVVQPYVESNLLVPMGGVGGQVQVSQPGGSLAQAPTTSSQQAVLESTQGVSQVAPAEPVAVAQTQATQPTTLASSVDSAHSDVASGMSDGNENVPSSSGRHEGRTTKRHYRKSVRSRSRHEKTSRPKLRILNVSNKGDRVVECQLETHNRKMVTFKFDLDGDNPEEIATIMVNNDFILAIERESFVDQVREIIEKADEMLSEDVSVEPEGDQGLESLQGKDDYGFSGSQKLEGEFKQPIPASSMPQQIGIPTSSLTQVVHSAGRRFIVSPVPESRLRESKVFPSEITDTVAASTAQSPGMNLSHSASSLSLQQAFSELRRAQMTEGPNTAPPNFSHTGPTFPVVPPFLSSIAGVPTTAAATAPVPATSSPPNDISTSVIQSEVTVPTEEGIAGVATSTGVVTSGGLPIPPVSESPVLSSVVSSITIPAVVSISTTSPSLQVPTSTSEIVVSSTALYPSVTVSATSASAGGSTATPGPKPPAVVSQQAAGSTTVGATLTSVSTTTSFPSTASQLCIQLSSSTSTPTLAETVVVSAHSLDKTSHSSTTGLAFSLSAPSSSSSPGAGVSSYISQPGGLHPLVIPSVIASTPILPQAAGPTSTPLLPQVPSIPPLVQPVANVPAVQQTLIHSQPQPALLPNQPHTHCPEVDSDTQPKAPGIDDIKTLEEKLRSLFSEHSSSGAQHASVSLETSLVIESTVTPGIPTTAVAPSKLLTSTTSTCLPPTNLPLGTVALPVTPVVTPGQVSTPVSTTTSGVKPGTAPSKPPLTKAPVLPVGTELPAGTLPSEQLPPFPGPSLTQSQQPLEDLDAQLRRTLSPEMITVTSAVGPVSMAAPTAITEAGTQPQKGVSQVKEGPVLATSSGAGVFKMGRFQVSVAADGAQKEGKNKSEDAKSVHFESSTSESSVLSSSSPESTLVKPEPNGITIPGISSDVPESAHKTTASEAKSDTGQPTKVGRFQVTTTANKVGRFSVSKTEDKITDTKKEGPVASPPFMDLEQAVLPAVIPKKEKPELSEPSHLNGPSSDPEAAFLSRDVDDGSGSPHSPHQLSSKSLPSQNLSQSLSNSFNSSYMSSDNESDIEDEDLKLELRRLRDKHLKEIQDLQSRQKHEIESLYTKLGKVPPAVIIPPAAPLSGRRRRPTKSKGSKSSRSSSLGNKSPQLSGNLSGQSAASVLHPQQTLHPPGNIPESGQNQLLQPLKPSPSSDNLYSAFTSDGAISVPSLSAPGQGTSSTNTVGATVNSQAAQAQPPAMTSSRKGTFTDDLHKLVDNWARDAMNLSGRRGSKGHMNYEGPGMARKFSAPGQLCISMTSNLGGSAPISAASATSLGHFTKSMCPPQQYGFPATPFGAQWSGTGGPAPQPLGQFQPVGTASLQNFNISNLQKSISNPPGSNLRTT

various kinases [12] = molecular target: various kinases (Homo sapiens, UniProt P53667); details: LIMK1
various kinases [13] = molecular target: various kinases (Homo sapiens, UniProt Q13705); details: ACVR2B
various kinases [14] = molecular target: various kinases (Homo sapiens, UniProt Q15835); details: GRK1
Sequence of various kinases (Homo sapiens, UniProt Q15835) (Q15835 whole entry): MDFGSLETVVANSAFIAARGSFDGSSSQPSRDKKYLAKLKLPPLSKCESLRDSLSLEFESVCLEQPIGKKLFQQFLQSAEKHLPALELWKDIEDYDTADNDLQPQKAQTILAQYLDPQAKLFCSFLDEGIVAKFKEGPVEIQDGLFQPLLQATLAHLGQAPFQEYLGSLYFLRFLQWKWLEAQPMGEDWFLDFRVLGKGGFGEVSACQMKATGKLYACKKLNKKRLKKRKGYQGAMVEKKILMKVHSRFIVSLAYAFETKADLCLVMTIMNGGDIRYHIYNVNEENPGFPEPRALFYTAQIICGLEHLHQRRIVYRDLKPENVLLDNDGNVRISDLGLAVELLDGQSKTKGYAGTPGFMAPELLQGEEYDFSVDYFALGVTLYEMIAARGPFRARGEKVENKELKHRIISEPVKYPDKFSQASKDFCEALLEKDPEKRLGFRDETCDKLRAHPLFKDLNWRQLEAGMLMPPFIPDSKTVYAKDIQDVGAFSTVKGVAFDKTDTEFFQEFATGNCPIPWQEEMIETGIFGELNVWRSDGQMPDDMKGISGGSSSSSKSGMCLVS

various kinases [15] = molecular target: T2, various kinases (Homo sapiens, UniProt Q9H2K8); details: kinase TAOK3 (JIK); LanthaScreen Binding
T2 sequence (Q9H2K8 1-898): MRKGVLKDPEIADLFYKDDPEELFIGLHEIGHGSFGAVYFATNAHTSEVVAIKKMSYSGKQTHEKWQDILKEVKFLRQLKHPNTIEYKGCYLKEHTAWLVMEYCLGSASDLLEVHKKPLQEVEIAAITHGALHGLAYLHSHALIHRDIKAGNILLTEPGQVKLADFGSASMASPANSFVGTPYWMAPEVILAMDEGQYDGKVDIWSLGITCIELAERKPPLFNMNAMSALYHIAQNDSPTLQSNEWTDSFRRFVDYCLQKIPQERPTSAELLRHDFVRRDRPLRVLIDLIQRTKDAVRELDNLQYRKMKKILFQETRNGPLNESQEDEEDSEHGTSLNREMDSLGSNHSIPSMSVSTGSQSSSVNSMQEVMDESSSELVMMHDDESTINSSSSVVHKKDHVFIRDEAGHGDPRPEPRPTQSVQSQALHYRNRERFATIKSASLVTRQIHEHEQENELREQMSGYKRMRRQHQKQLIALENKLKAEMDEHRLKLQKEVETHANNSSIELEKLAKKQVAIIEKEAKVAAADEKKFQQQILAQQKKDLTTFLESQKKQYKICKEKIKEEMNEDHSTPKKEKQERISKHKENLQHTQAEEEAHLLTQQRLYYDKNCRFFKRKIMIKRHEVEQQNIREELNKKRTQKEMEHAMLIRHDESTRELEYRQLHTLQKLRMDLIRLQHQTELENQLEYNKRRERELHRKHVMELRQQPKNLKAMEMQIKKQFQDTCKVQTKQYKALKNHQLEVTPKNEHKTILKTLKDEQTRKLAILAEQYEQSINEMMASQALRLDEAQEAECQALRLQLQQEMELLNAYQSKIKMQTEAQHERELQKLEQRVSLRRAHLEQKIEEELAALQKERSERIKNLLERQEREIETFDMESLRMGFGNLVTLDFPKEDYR

various kinases [16] = molecular target: various kinases (Homo sapiens, UniProt Q96GX5); details: MASTL
various kinases [17] = molecular target: various kinases (Homo sapiens, UniProt P37173); details: kinase TGFBR2; LanthaScreen Binding
Sequence of various kinases (Homo sapiens, UniProt P37173) (P37173 23-567): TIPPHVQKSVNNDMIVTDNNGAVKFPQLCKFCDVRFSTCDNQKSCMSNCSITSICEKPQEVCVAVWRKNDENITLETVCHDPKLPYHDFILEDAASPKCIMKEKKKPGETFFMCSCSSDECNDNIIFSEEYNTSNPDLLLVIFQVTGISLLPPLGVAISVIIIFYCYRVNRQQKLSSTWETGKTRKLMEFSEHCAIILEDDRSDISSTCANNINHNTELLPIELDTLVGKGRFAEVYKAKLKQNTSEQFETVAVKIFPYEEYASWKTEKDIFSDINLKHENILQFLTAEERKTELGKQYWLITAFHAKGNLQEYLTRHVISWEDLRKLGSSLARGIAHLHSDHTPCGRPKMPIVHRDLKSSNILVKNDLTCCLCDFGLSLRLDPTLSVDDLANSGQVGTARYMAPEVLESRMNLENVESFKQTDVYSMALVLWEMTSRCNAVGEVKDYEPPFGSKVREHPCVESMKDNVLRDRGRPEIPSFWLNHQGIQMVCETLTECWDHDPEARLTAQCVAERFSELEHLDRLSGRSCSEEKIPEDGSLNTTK

various kinases [18] = molecular target: various kinases (Homo sapiens, UniProt Q02779); details: MAP3K10 (MLK2)

Compound: COc1ccc2c(c1)[C@]1(C[C@H]1c1ccc3c(/C=C/c4ccc(CN5C[C@@H](C)O[C@@H](C)C5)cc4)n[nH]c3c1)C(=O)N2 [CFI-400945]
- % Inhibition Average (various kinases [1]): 0%
- % Inhibition Duplicate #1 (various kinases [1]): -1%
- % Inhibition Duplicate #2 (various kinases [1]): 0%
- % Inhibition (various kinases [2]): 14% and 25%
- % Inhibition Average (various kinases [3]): 34%
- % Inhibition Duplicate #1 (various kinases [3]): 29%
- % Inhibition Duplicate #2 (various kinases [3]): 39%
- % Inhibition (various kinases [4]): 0% and 2%
- % Inhibition (various kinases [5]): -4% and -2%
- % Inhibition (various kinases [6]): 9% and 6%
- % Inhibition Average (various kinases [7]): 13%
- % Inhibition Duplicate #1 (various kinases [7]): 17%
- % Inhibition Duplicate #2 (various kinases [7]): 8%
- % Inhibition (various kinases [8]): 3% and 7%
- % Inhibition (various kinases [9]): 0% and -2%
- % Inhibition (various kinases [10]): 1% and 6%
- % Inhibition Average (various kinases [11]): 11%
- % Inhibition Duplicate #1 (various kinases [11]): 14%
- % Inhibition Duplicate #2 (various kinases [11]): 8%
- % Inhibition (various kinases [12]): 11% and 15%
- % Inhibition (various kinases [13]): 4% and 0%
- % Inhibition (various kinases [14]): 22% and 13%
- % Inhibition Average (various kinases [15]): 10%
- % Inhibition Duplicate #1 (various kinases [15]): 14%
- % Inhibition Duplicate #2 (various kinases [15]): 6%
- % Inhibition (various kinases [16]): 16% and 15%
- % Inhibition Average (various kinases [17]): 1%
- % Inhibition Duplicate #1 (various kinases [17]): -2%
- % Inhibition Duplicate #2 (various kinases [17]): 5%
- % Inhibition (various kinases [18]): -2% and 1%
